{
  "source": "patent US6258790A",
  "about": "“Antisense modulation of integrin α4 expression” (Isis Pharmaceuticals, Inc., priority 1999, dated 2001)",
  "format_in_all_cases": "cell-based, mouse",
  "key": {"murine integrin α4 mRNA [1]": {"test_system": "murine integrin α4 mRNA", "experiment": "Antisense inhibition of murine integrin α4 mRNA expression in P388D (IL-1) macrophage cells (RNA gel, PCR-labeled probe)", "conditions": "100 nM; for % Control (murine integrin α4 mRNA) / % Inhib (murine integrin α4 mRNA): Table 8, P388D (IL-1) cells, 3 ug/ml lipofectin", "description": "Oligonucleotides were initially screened in murine P388D (IL-1) macrophage cells (American Type Culture Collection, Manassas Va.) for 4 hours at an oligonucleotide concentration of 100 nM in 3 ug/ml lipofectin."}, "murine integrin α4 mRNA [2]": {"test_system": "murine integrin α4 mRNA", "experiment": "Antisense inhibition of murine integrin α4 mRNA expression in P388D (IL-1) macrophage cells (RNA gel, PCR-labeled probe)", "conditions": "Table 9, averages of duplicate samples"}, "murine integrin α4": {"test_system": "murine integrin α4", "experiment": "Antisense inhibition of murine integrin α4 protein expression in IC-21 macrophage cells (flow cytometry, CD49d-PE)", "conditions": "Table 11; IC-21 cells; 25 nM; triplicates", "description": "Murine IC-21 macrophage cells (American Type Culture Collection, Manassas, Va.) were used for further study. Additional oligonucleotides were designed to target murine integrin α4. These are shown in Table 10; all 2' MOE nucleotides are shown in bold and remaining positions are 2' deoxy. All 2'-MOE cytosines in these compounds are 5' methylcytosines. IC-21 cells were seeded at 5×10^4 cell/well plates two days before assay. […] Wells were triplicates.\nCells (triplicates) were seeded at 2.5×10^4 cells/well in 24-well plates the day before treatment. Oligonucleotide concentrations were 0.2, 1, 5, 25 and 50 nM in 3 ug/ml LIPOFECTIN. Cells were harvested with 2 mM EDTA for 4 minutes, then 1 ml of 2% BSA, 0.2% azide was added per contents of each well.\nIC-21 cells were treated with 0.3, 1, 3, 10 and 30 nM oligonucleotide with 3 ug/ml LIPOFECTIN for 4 hours. Cells were incubated for 24 hours, harvested with trypsin, stained with 2 ug/ml CD49d-PE and rat IgG2B as in previous examples.\nThese compounds were tested for ability to inhibit integrin α4 protein expression."}, "[3]": {"conditions": "Table 9, averages of duplicate samples"}},
  "data": [
    {"substance": "15600 (antisense CACGCCCCGTTTCTGTGGCC; phosphorothioate, 2'-MOE, further chemistry not given here) [compound 15600]", "values": [
      {"measurement": "% Control (murine integrin α4 mRNA)", "setting": "murine integrin α4 mRNA [1]", "result": 93, "unit": "%"},
      {"measurement": "% Inhib (murine integrin α4 mRNA)", "setting": "murine integrin α4 mRNA [1]", "result": "07", "unit": "%"}
    ]},
    {"substance": "15601 (antisense CACGCCCCGTTTCTGTGGCC; phosphodiester, 2'-MOE, further chemistry not given here) [compound 15601]", "values": [
      {"measurement": "% Control (murine integrin α4 mRNA)", "setting": "murine integrin α4 mRNA [1]", "result": 60, "unit": "%"},
      {"measurement": "% Inhib (murine integrin α4 mRNA)", "setting": "murine integrin α4 mRNA [1]", "result": 40, "unit": "%"}
    ]},
    {"substance": "15602 (antisense CACGCCCCGTTTCTGTGGCC; phosphorothioate DNA, further chemistry not given here) [compound 15602]", "values": [
      {"measurement": "% Control (murine integrin α4 mRNA)", "setting": "murine integrin α4 mRNA [1]", "result": 48, "unit": "%"},
      {"measurement": "% Inhib (murine integrin α4 mRNA)", "setting": "murine integrin α4 mRNA [1]", "result": 52, "unit": "%"}
    ]},
    {"substance": "15603 (antisense GGATGCTTCAGGCTCTGGCC; phosphorothioate DNA, further chemistry not given here) [compound 15603]", "values": [
      {"measurement": "% Control (murine integrin α4 mRNA)", "setting": "murine integrin α4 mRNA [1]", "result": 38, "unit": "%"},
      {"measurement": "% Inhib (murine integrin α4 mRNA)", "setting": "murine integrin α4 mRNA [1]", "result": 62, "unit": "%"}
    ]},
    {"substance": "15604 (antisense GGAGCGATCGTAGTGGCCAG; phosphorothioate DNA, further chemistry not given here) [compound 15604]", "values": [
      {"measurement": "% Control (murine integrin α4 mRNA)", "setting": "murine integrin α4 mRNA [1]", "result": 134, "unit": "%"}
    ]},
    {"substance": "15605 (antisense CCGGTGCTGGCAGGCGACAG; phosphorothioate DNA, further chemistry not given here) [compound 15605]", "values": [
      {"measurement": "% Control (murine integrin α4 mRNA)", "setting": "murine integrin α4 mRNA [1]", "result": 84, "unit": "%"},
      {"measurement": "% Inhib (murine integrin α4 mRNA)", "setting": "murine integrin α4 mRNA [1]", "result": 16, "unit": "%"}
    ]},
    {"substance": "15606 (antisense GATGAAGTGCAGCAGCGTGT; phosphorothioate DNA, further chemistry not given here) [compound 15606]", "values": [
      {"measurement": "% Control (murine integrin α4 mRNA)", "setting": "murine integrin α4 mRNA [1]", "result": 72, "unit": "%"},
      {"measurement": "% Inhib (murine integrin α4 mRNA)", "setting": "murine integrin α4 mRNA [1]", "result": 28, "unit": "%"}
    ]},
    {"substance": "15607 (antisense GGCCACTGACCAGAGTTGCA; phosphorothioate DNA, further chemistry not given here) [compound 15607]", "values": [
      {"measurement": "% Control (murine integrin α4 mRNA)", "setting": "murine integrin α4 mRNA [1]", "result": 26, "unit": "%"},
      {"measurement": "% Inhib (murine integrin α4 mRNA)", "setting": "murine integrin α4 mRNA [1]", "result": 74, "unit": "%"},
      {"measurement": "activity in the mRNA screen", "setting": "murine integrin α4 mRNA [1]; Table 8 assay", "result": "most active"},
      {"measurement": "% Control", "setting": "murine integrin α4 mRNA [1]; [3]", "result": 55, "unit": "%"},
      {"measurement": "% Inhib.", "setting": "murine integrin α4 mRNA [1]; [3]", "result": 45, "unit": "%"},
      {"measurement": "% Control", "setting": "murine integrin α4 mRNA [2]; 12.5 nM", "result": 78, "unit": "%"},
      {"measurement": "% Inhib.", "setting": "murine integrin α4 mRNA [2]; 12.5 nM", "result": 22, "unit": "%"},
      {"measurement": "% Control", "setting": "murine integrin α4 mRNA [2]; 25 nM", "result": 67, "unit": "%"},
      {"measurement": "% Inhib.", "setting": "murine integrin α4 mRNA [2]; 25 nM", "result": 33, "unit": "%"},
      {"measurement": "% Control", "setting": "murine integrin α4 mRNA [2]; 50 nM", "result": 50, "unit": "%"},
      {"measurement": "% Inhib.", "setting": "murine integrin α4 mRNA [2]; 50 nM", "result": 50, "unit": "%"},
      {"measurement": "% Control (integrin α4 protein)", "setting": "murine integrin α4", "result": 82, "unit": "%"},
      {"measurement": "% Inhib (integrin α4 protein)", "setting": "murine integrin α4", "result": 18, "unit": "%"}
    ]}
  ]
}
